# From article PMC8320704 (Journal of medicinal chemistry, 2015)
# Where two headings read alike, the source gives them in different places.
# What was measured:
# [1] = biological target: HIV-1 IN (3′-P) (Human immunodeficiency virus type 1 group M subtype B, UniProt P04585); test: HIV-1 IN gel-based assay, 3′-processing; format: biochemical
# [2] = test system: HIV-1(IIIB)
# [3] = biological target: HIV-1 RT RNase H (Human immunodeficiency virus type 1 group M subtype B, UniProt P04585); test: HIV-1 RT RNase H inhibition; format: biochemical
# [4] = biological target: HIV-1 IN (ST) (Human immunodeficiency virus type 1 group M subtype B, UniProt P04585); test: HIV-1 IN gel-based assay, strand transfer; format: biochemical
smiles,measurement,setting,value
"CCOC(=O)/C(O)=C/C(=O)c1cn(Cc2cccc(OC)c2)c2ccccc2c1=O [10e, 4-[1-(3-Methoxyphenyl)methyl-4(1H)-quinolinon-3-yl]-2-hydroxy-4-oxo-2-butenoic Acid Ethyl Ester]",IC50,[1],> 333 µM
"O=C(O)/C(O)=C/C(=O)c1cn(Cc2ccc(Cl)cc2)c2ccccc2c1=O [11f, 4-[1-(4-Chlorophenyl)methyl-4(1H)-quinolinon-3-yl]-2-hydroxy-4-oxo-2-butenoic Acid]",selectivity index (SI),[2],> 57.5
same,SI = CC50/EC50,[2]; Table 1,>57.5
same,IC50,"[3]; RNase H IC50, Table 1",> 50 µM
"COc1ccccc1Cn1cc(C(=O)/C=C(\O)C(=O)O)c(=O)c2ccccc21 [11c, 4-[1-(2-Methoxyphenyl)methyl-4(1H)-quinolinon-3-yl]-2-hydroxy-4-oxo-2-butenoic Acid]",SI = CC50/EC50,[2]; Table 1,>5.4
same,IC50,[1],> 4.1 µM
"CCOC(=O)/C(O)=C/C(=O)c1cn(Cc2ccccc2F)c2cc(Cl)ccc2c1=O [10w, 4-[7-Chloro-1-(2-fluorophenyl)methyl-4(1H)-quinolinon-3-yl]-2-hydroxy-4-oxo-2-butenoic Acid Ethyl Ester]",SI = CC50/EC50,[2]; Table 1,>4.5
"O=C(O)/C(O)=C/C(=O)c1cn(Cc2ccc3ccccc3c2)c2ccccc2c1=O [11y, 2-Hydroxy-4-(1-(naphthalen-2-ylmethyl)-4-oxo-1,4-dihydroquinolin-3-yl)-4-oxobut-2-enoic Acid]",SI = CC50/EC50,[2]; Table 2,>10.4
same,IC50,[4],< 0.45 µM
"O=C(O)/C(O)=C/C(=O)c1cn(Cc2ccccc2F)c2cc(Cl)ccc2c1=O [11w, 4-[7-Chloro-1-(2-fluorophenyl)methyl-4(1H)-quinolinon-3-yl]-2-hydroxy-4-oxo-2-butenoic Acid]",SI = CC50/EC50,[2]; Table 1,>2.9
"O=C(O)/C(O)=C/C(=O)c1cn(Cc2c(F)cccc2F)c2ccccc2c1=O [11l, 4-[1-(2,6-Difluorophenyl)methyl-4(1H)-quinolinon-3-yl]-2-hydroxy-4-oxo-2-butenoic Acid]",SI = CC50/EC50,[2]; Table 1,>6.2
same,IC50,"[3]; RNase H IC50, text",~10 µM
"O=C(O)/C(O)=C/C(=O)c1cn(Cc2ccccc2F)c2c(Cl)cccc2c1=O [11v, 8-Chloro-4-[1-(2-fluorophenyl)methyl-4(1H)-quinolinon-3-yl]-2-hydroxy-4-oxo-2-butenoic Acid]",IC50,"[3]; RNase H IC50, Table 1",> 50 µM
"CCOC(=O)/C(O)=C/C(=O)c1cn(Cc2ccc(F)c(Cl)c2)c2c(Cl)cccc2c1=O [10u, 8-Chloro-4-[1-(3-chloro-4-fluorophenyl)methyl-4(1H)-quinolinon-3-yl]-2-hydroxy-4-oxo-2-butenoic Acid Ethyl Ester]",IC50,[1],> 333 µM
"CCOC(=O)/C(O)=C/C(=O)c1cn(Cc2cc(F)cc(F)c2)c2ccccc2c1=O [10n, 4-[1-(3,5-Difluorophenyl)methyl-4(1H)-quinolinon-3-yl]-2-hydroxy-4-oxo-2-butenoic Acid Ethyl Ester]",SI = CC50/EC50,[2]; Table 1,>1.5
"O=C(O)/C(O)=C/C(=O)c1cn(Cc2ccc(F)cc2F)c2ccccc2c1=O [11j, 4-[1-(2,4-Difluorophenyl)methyl-4(1H)-quinolinon-3-yl]-2-hydroxy-4-oxo-2-butenoic Acid]",SI = CC50/EC50,[2]; Table 1,>3.6
"CCOC(=O)/C(O)=C/C(=O)c1cn(Cc2cccc(Cl)c2F)c2ccccc2c1=O [10s, 4-[1-(3-Chloro-2-fluorophenyl)methyl-4(1H)-quinolinon-3-yl]-2-hydroxy-4-oxo-2-butenoic Acid Ethyl Ester]",SI = CC50/EC50,[2]; Table 1,>5
"O=C(O)/C(O)=C/C(=O)c1cn(Cc2ccccc2F)c2ccccc2c1=O [11b, 4-[1-(2-Fluorophenyl)methyl-4(1H)-quinolinon-3-yl]-2-hydroxy-4-oxo-2-butenoic Acid]",SI = CC50/EC50,[2]; Table 1,>19.2
same,IC50,"[3]; RNase H IC50, Table 1",> 50 µM
"CCOC(=O)/C(O)=C/C(=O)c1cn(Cc2c(Cl)cccc2Cl)c2ccccc2c1=O [10p, 4-[1-(2,6-Dichlorophenyl)methyl-4(1H)-quinolinon-3-yl]-2-hydroxy-4-oxo-2-butenoic Acid Ethyl Ester]",SI = CC50/EC50,[2]; Table 1,>1.7
same,IC50,"[3]; RNase H IC50, Table 1",> 50 µM
"O=C(O)/C(O)=C/C(=O)c1cn(Cc2ccc(F)c(F)c2)c2ccccc2c1=O [11m, 4-[1-(3,4-Difluorophenyl)methyl-4(1H)-quinolinon-3-yl]-2-hydroxy-4-oxo-2-butenoic Acid]",SI = CC50/EC50,[2]; Table 1,>3.1
same,IC50,"[3]; RNase H IC50, Table 1",> 50 µM
"O=C(O)/C(O)=C/C(=O)c1cn(Cc2cc(F)cc(F)c2)c2ccccc2c1=O [11n, 4-[1-(3,5-Difluorophenyl)methyl-4(1H)-quinolinon-3-yl]-2-hydroxy-4-oxo-2-butenoic Acid]",IC50,"[3]; RNase H IC50, Table 1",> 50 µM
"CCOC(=O)/C(O)=C/C(=O)c1cn(Cc2ccc(F)c(Cl)c2)c2ccccc2c1=O [10t, 4-[1-(3-Chloro-4-fluorophenyl)methyl-4(1H)-quinolinon-3-yl]-2-hydroxy-4-oxo-2-butenoic Acid Ethyl Ester]",SI = CC50/EC50,[2]; Table 1,>2.9
"O=C(O)/C(O)=C/C(=O)c1cn(Cc2cccc(F)c2)c2ccccc2c1=O [11d, 4-[1-(3-Fluorophenyl)methyl-4(1H)-quinolinon-3-yl]-2-hydroxy-4-oxo-2-butenoic Acid]",SI = CC50/EC50,[2]; Table 1,>1.8
"CCOC(=O)/C(O)=C/C(=O)c1cn(CCCCc2ccccc2)c2ccccc2c1=O [10x, 2-Hydroxy-4-oxo-4-(4-oxo-1-(4-phenylbutyl)-1,4-dihydroquinolin-3-yl)but-2-enoic Acid Ethyl Ester]",IC50,[1],> 333 µM
"CCOC(=O)/C(O)=C/C(=O)c1cn(Cc2ccccc2F)c2ccccc2c1=O [10b, 4-[1-(2-Fluorophenyl)methyl-4(1H)-quinolinon-3-yl]-2-hydroxy-4-oxo-2-butenoic Acid Ethyl Ester]",SI = CC50/EC50,[2]; Table 1,>33.4
"CCOC(=O)/C(O)=C/C(=O)c1cn(Cc2ccccc2OC)c2ccccc2c1=O [10c, 4-[1-(2-Methoxyphenyl)methyl-4(1H)-quinolinon-3-yl]-2-hydroxy-4-oxo-2-butenoic Acid Ethyl Ester]",SI = CC50/EC50,[2]; Table 1,>19.2
same,IC50,[1],> 333 µM
"CCOC(=O)/C(O)=C/C(=O)c1cn(Cc2ccc3ccccc3c2)c2ccccc2c1=O [10y, 2-Hydroxy-4-(1-(naphthalen-2-ylmethyl)-4-oxo-1,4-dihydroquinolin-3-yl)-4-oxobut-2-enoic Acid Ethyl Ester]",IC50,[1],> 333 µM
"CCOC(=O)/C(O)=C/C(=O)c1cn(Cc2ccncc2)c2ccccc2c1=O [10z, 2-Hydroxy-4-oxo-4-(4-oxo-1-(pyridin-4-ylmethyl)-1,4-dihydroquinolin-3-yl)but-2-enoic Acid Ethyl Ester]",IC50,[1],> 333 µM
"O=C(O)/C(O)=C/C(=O)c1cn(Cc2cc(F)ccc2F)c2ccccc2c1=O [11k, 4-[1-(2,5-Difluorophenyl)methyl-4(1H)-quinolinon-3-yl]-2-hydroxy-4-oxo-2-butenoic Acid]",IC50,"[3]; RNase H IC50, Table 1",> 50 µM
"CCOC(=O)/C(O)=C/C(=O)c1cn(Cc2cccc(F)c2)c2ccccc2c1=O [10d, 4-[1-(3-Fluorophenyl)methyl-4(1H)-quinolinon-3-yl]-2-hydroxy-4-oxo-2-butenoic Acid Ethyl Ester]",SI = CC50/EC50,[2]; Table 1,>29.4
same,IC50,[1],> 12.3 µM
"CCOC(=O)/C(O)=C/C(=O)c1cn(Cc2c(F)cccc2F)c2ccccc2c1=O [10l, 4-[1-(2,6-Difluorophenyl)methyl-4(1H)-quinolinon-3-yl]-2-hydroxy-4-oxo-2-butenoic Acid Ethyl Ester]",selectivity index (SI),[2],> 250
same,SI = CC50/EC50,[2]; Table 1,>250
same,IC50,[1],> 12.3 µM
"O=C(O)/C(O)=C/C(=O)c1cn(Cc2ccncc2)c2ccccc2c1=O [11z, 2-Hydroxy-4-oxo-4-(4-oxo-1-(pyridin-4-ylmethyl)-1,4-dihydroquinolin-3-yl)but-2-enoic Acid]",IC50,[1],> 1000 µM
"CCOC(=O)/C(O)=C/C(=O)c1cn(Cc2ccc3ccccc3n2)c2ccccc2c1=O [10aa, 2-Hydroxy-4-oxo-4-(4-oxo-1-(quinolin-2-ylmethyl)-1,4-dihydroquinolin-3-yl)but-2-enoic Acid Ethyl Ester]",IC50,[1],> 1000 µM
"CCOC(=O)/C(O)=C/C(=O)c1cn(Cc2ccc(F)c(F)c2)c2ccccc2c1=O [10m, 4-[1-(3,4-Difluorophenyl)methyl-4(1H)-quinolinon-3-yl]-2-hydroxy-4-oxo-2-butenoic Acid Ethyl Ester]",SI = CC50/EC50,[2]; Table 1,>5.1
"O=C(O)/C(O)=C/C(=O)c1cn(Cc2ccc(O)cc2)c2ccccc2c1=O [11g, 4-[1-(4-Hydroxyphenyl)methyl-4(1H)-quinolinon-3-yl]-2-hydroxy-4-oxo-2-butenoic Acid]",IC50,"[3]; RNase H IC50, text",~10 µM
same,IC50,[1],> 37 µM
"COc1cccc(Cn2cc(C(=O)/C=C(\O)C(=O)O)c(=O)c3ccccc32)c1 [11e, 4-[1-(3-Methoxyphenyl)methyl-4(1H)-quinolinon-3-yl]-2-hydroxy-4-oxo-2-butenoic Acid]",IC50,[1],> 4.1 µM
"O=C(O)/C(O)=C/C(=O)c1cn(Cc2cccc(Cl)c2F)c2ccccc2c1=O [11s, 4-[1-(3-Chloro-2-fluorophenyl)methyl-4(1H)-quinolinon-3-yl]-2-hydroxy-4-oxo-2-butenoic Acid]",SI = CC50/EC50,[2]; Table 1,>2.1
"CCOC(=O)/C(O)=C/C(=O)c1cn(Cc2ccc(O)cc2)c2ccccc2c1=O [10g, 4-[1-(4-Hydroxyphenyl)methyl-4(1H)-quinolinon-3-yl]-2-hydroxy-4-oxo-2-butenoic Acid Ethyl Ester]",SI = CC50/EC50,[2]; Table 1,>1.6
same,IC50,[1],> 333 µM
"CCOC(=O)/C(O)=C/C(=O)c1cn(Cc2ccccc2)c2ccccc2c1=O [10a, 4-[1-Phenylmethyl-4(1H)-quinolinon-3-yl]-2-hydroxy-4-oxo-2-butenoic Acid Ethyl Ester]",SI = CC50/EC50,[2]; Table 1,>50
same,IC50,[1],> 1000 µM
"COc1ccc(Cn2cc(C(=O)/C=C(\O)C(=O)O)c(=O)c3ccccc32)cc1 [11h, 4-[1-(4-Methoxyphenyl)methyl-4(1H)-quinolinon-3-yl]-2-hydroxy-4-oxo-2-butenoic Acid]",IC50,"[3]; RNase H IC50, Table 1",> 50 µM
"CCOC(=O)/C(O)=C/C(=O)c1cn(Cc2ccc(F)cc2F)c2ccccc2c1=O [10j, 4-[1-(2,4-Difluorophenyl)methyl-4(1H)-quinolinon-3-yl]-2-hydroxy-4-oxo-2-butenoic Acid Ethyl Ester]",selectivity index (SI),[2],> 86.2
same,SI = CC50/EC50,[2]; Table 1,>86.2
